In US20130217664A1, “NOVEL COMPOUNDS USEFUL FOR THE TREATMENT OF DEGENERATIVE AND INFLAMMATORY DISEASES” (priority 2012, published 2013) one finds IC50 data, which are given here for 19 molecules.

In test [1] the target is T1, human JAK1 (Homo sapiens, UniProt P23458).
T1 construct: catalytic domain, amino acids 866-1154; catalog number PV4774; purchased Invitrogen PV4774
As to the kind of experiment: JAK1 inhibition assay (polyGT substrate / Ulight-JAK1 peptide). In kind it is biochemical. The settings on record: recombinant human JAK1 catalytic domain; polyGT or Ulight-JAK1 peptide assay. The method in brief:
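Two formats. PolyGT radiometric: 45 min at 30 °C, stopped with phosphoric acid, counted as cpm. Ulight-JAK1 peptide: 60 min at room temperature, stopped with Eu-anti-phosphotyrosine/EDTA, read as RFU. Percent inhibition normalised to vehicle and 10 μM staurosporine.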

Test [2] addresses T2, human JAK3 (Homo sapiens, UniProt P52333).
T2 construct: catalytic domain (amino acids 781-1124; catalog number PV3855); purchased Invitrogen PV3855
Briefly: JAK3 inhibition assay. In kind it is biochemical. The following applies: recombinant human JAK3 catalytic domain; polyGT substrate. In a few lines: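 Radiometric kinase assay: 0.5 ng JAK3 with 2.5 μg polyGT in Tris pH 7.5/MgCl2 buffer, 1 μM ATP plus 0.25 μCi 33P-γ-ATP, 1% DMSO, 45 min at 30 °C, stopped with phosphoric acid.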

For test [3], the system named is pSTAT1(2)-luciferase reporter in HeLa cells triggered with human OSM. Briefly: JAK-STAT signalling assay. The class given is cell-based. The settings on record: Homo sapiens, HeLa, HeLa cells, pSTAT1(2)-luciferase reporter, human OSM 33 ng/mL; read-out: JAK-STAT IC50. As for the experimental part:
JAK-STAT Signalling Assay
HeLa cells were maintained in Dulbecco's Modified Eagle's Medium (DMEM) containing 10% heat inactivated fetal calf serum, 100 U/mL penicillin and 100 μg/mL streptomycin. HeLa cells were used at 70% confluence for transfection. 20,000 cells in 87 μL cell culture medium were transiently transfected with 40 ng pSTAT1(2)-luciferase reporter (Panomics), 8 ng of LacZ reporter as internal control reporter and 52 ng of pBSK using 0.32 μL Jet-PEI (Polyplus) as transfection reagent per well in 96-well plate format. After overnight incubation at 37° C., 5% CO2, transfection medium was removed. 81 μL of DMEM+1.5% heat inactivated fetal calf serum was added. 9 μL compound at 10× concentration was added for 60 min and then 10 μL of human OSM (Peprotech) at 33 ng/mL final concentration.
After overnight incubation at 37° C., 5% CO2 cells were lysed by adding 100 μL lysis buffer/well (PBS, 0.9 mM CaCl2, 0.5 mM MgCl2, 10% Trehalose, 0.05% Tergitol NP9, 0.3% BSA).
40 μL of cell lysate was used to read β-galactosidase activity by adding 180 μL β-Gal solution (30 μL ONPG 4 mg/mL+150 μL β-Galactosidase buffer (0.06 M Na2HPO4, 0.04 M NaH2PO4, 1 mM MgCl2)) for 20 min.
Luciferase activity was measured using 40 μL cell lysate plus 40 μL of Steadylite as described by the manufacturer (Perkin Elmer), on the Envision (Perkin Elmer).
The positive and negative controls were used to calculate z′ and ‘percent inhibition’ (PIN) values.
Percentage inhibition=((fluorescence determined in the presence of vehicle−fluorescence determined for sample with test compound present)divided by(fluorescence determined in the presence of vehicle−fluorescence determined for sample without trigger))*100.
PIN values were plotted for compounds tested in dose-response and EC50 values were derived.
On the technique in general: In a reporter assay the amount or activity of a reporter protein is the signal.

Test [4] concerns the target T3, human TYK2 (Homo sapiens, UniProt P29597).
T3 construct: catalytic domain (amino acids 871-1187; catalog number 08-147); purchased Carna Biosciences 08-147
T3 sequence (P29597 871-1187): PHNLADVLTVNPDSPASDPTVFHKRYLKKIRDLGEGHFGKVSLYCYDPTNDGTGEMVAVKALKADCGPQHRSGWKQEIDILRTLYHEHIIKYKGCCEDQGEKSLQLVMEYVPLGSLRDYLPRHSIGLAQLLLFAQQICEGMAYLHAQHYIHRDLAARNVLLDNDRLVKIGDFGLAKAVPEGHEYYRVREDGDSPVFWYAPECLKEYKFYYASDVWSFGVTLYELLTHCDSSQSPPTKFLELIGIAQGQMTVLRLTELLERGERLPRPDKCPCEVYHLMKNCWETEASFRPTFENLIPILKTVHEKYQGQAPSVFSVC
Briefly: TYK2 inhibition assay. The class given is biochemical. The following applies: recombinant human TYK2 catalytic domain, polyGT substrate. In a few lines:
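Radiometric kinase reaction run 90 min at 30 °C, stopped with phosphoric acid, washed and scintillation-counted.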

For orientation: IC50 means the concentration needed to halve the response being measured.

Bounds are passed on as bounds.

T2 sequence (P52333 781-1124): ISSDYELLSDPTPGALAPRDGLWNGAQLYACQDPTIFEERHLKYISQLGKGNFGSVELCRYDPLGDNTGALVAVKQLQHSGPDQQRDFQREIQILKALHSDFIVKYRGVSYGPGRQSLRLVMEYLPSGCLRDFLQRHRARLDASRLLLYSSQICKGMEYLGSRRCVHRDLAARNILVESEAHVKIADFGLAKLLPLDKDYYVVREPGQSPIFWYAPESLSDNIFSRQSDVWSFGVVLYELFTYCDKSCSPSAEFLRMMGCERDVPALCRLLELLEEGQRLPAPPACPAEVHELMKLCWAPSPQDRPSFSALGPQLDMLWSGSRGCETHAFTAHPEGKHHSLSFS
T1 sequence (P23458 866-1154): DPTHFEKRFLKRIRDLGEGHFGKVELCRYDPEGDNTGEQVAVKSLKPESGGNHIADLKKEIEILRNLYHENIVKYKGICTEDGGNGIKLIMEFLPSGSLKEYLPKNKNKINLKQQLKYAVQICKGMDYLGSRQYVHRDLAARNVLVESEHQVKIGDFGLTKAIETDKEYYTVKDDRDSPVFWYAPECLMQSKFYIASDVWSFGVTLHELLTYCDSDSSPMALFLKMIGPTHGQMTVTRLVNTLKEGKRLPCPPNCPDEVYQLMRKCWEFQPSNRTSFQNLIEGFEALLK

`CCc1cc(-c2cnc(N(C)C)nc2)ccc1N(C)c1cc2c(cn1)ncn2C` [Compound 129, N-(4-(2-(dimethylamino)pyrimidin-5-yl)-2-ethylphenyl)-N,1-dimethyl-1H-imidazo[4,5-c]pyridin-6-amine]: the concentration for half-maximal inhibition (IC50) is 0.01 to 100 nM in test [1], over 1000 nM in test [2], over 1000 nM in test [3] and 101 to 500 nM in test [4].
For the molecule `CCc1cc(-c2ccc(C)nc2)ccc1N(C)c1cc2c(cn1)ncn2C` [Compound 131, N-(2-ethyl-4-(6-methylpyridin-3-yl)phenyl)-N,1-dimethyl-1H-imidazo[4,5-c]pyridin-6-amine], the IC50 in test [1] is 0.01 to 100 nM; in test [2], over 1000 nM; in test [3], 501 to 1000 nM; in test [4], 101 to 500 nM.
Regarding `CCc1cc(-c2ccc(O)nc2)ccc1N(C)c1cc2c(cn1)ncn2C` [Compound 132, 5-(3-Ethyl-4-(methyl(1-methyl-1H-imidazo[4,5-c]pyridin-6-yl)amino)phenyl)pyridin-2-ol], the half-maximal inhibitory concentration (IC50) in test [1] was in the range of 0.01 to 100 nM; in test [2], 101 to 500 nM; in test [3], 501 to 1000 nM; in test [4] it was 0.01 to 100 nM.
Regarding `CCc1cc(CNC)ccc1N(C)c1cc2c(cn1)ncn2C` [Compound 135, N-(2-ethyl-4-((methylamino)methyl)phenyl)-N,1-dimethyl-1H-imidazo[4,5-c]pyridin-6-amine], the IC50 in test [1] is 0.01 to 100 nM; in test [2], over 1000 nM; in test [3], over 1000 nM; in test [4], over 1000 nM.
`CCc1cc(CN2CCN(S(C)(=O)=O)CC2)ccc1N(C)c1cc2c(cn1)ncn2C` [Compound 136, N-(2-Ethyl-4-((4-(methylsulfonyl)piperazin-1-yl)methyl)phenyl)-N,1-dimethyl-1H-imidazo[4,5-c]pyridin-6-amine]: the IC50 in test [1] fell in the range of 0.01 to 100 nM; in test [2], 501 to 1000 nM; in test [3], 501 to 1000 nM; in test [4] it was 0.01 to 100 nM.
For `CCc1cc(-c2cnn(Cc3ccccc3)c2)ccc1N(C)c1cc2c(cn1)ncn2C` [Compound 139, N-(4-(1-benzyl-1H-pyrazol-4-yl)-2-ethylphenyl)-N,1-dimethyl-1H-imidazo[4,5-c]pyridin-6-amine], the IC50 in test [1] is 0.01 to 100 nM; in test [2], 101 to 500 nM; in test [3], 501 to 1000 nM; in test [4], 0.01 to 100 nM.
For `CCc1cc(-c2cnc(C(C)C)nc2)ccc1N(C)c1cc2c(cn1)ncn2C` [Compound 140, N-(2-ethyl-4-(2-isopropylpyrimidin-5-yl)phenyl)-N,1-dimethyl-1H-imidazo[4,5-c]pyridin-6-amine], the IC50 was 0.01 to 100 nM in test [1], over 1000 nM in test [2], over 1000 nM in test [3] and 101 to 500 nM in test [4].
Consider `CCc1cc(CN2CCN(C)CC2)ccc1N(C)c1cc2c(cn1)ncn2C` [Compound 141, N-(2-ethyl-4-((4-methylpiperazin-1-yl)methyl)phenyl)-N,1-dimethyl-1H-imidazo[4,5-c]pyridin-6-amine], for which the IC50 in test [1] was 101 to 500 nM; in test [2], over 1000 nM; in test [3], over 1000 nM; in test [4] it was over 1000 nM.
For `CCc1cc(CN2CCOCC2)ccc1N(C)c1cc2c(cn1)ncn2C` [Compound 142, N-(2-ethyl-4-(morpholinomethyl)phenyl)-N,1-dimethyl-1H-imidazo[4,5-c]pyridin-6-amine], the IC50 in test [1] was 0.01 to 100 nM; in test [2], over 1000 nM; in test [3] it was 501 to 1000 nM; in test [4] it was 101 to 500 nM.
`CCc1cc(CN2CCS(=O)(=O)CC2)ccc1N(C)c1cc2c(cn1)ncn2C` [Compound 143, [4-(1,1-Dioxothiomorpholin-4-ylmethyl)-2-ethyl-phenyl]-methyl-(1-methyl-1H-imidazo[4,5-c]pyridin-6-yl)-amine]: the concentration for half-maximal inhibition (IC50) is 0.01 to 100 nM in test [1], 501 to 1000 nM in test [2], over 1000 nM in test [3] and 501 to 1000 nM in test [4].
For `CCc1cc(-c2cnccn2)ccc1N(C)c1cc2c(cn1)ncn2C` [Compound 144, N-(2-ethyl-4-(pyrazin-2-yl)phenyl)-N,1-dimethyl-1H-imidazo[4,5-c]pyridin-6-amine], the IC50 in test [1] was 0.01 to 100 nM; in test [2], 501 to 1000 nM; in test [3] it was over 1000 nM; in test [4], 0.01 to 100 nM.
Take `CCc1cc(-c2noc(C)n2)ccc1N(C)c1cc2c(cn1)ncn2C` [Compound 147, N-(2-ethyl-4-(5-methyl-1,2,4-oxadiazol-3-yl)phenyl)-N,1-dimethyl-1H-imidazo[4,5-c]pyridin-6-amine]: the IC50 in test [1] is 0.01 to 100 nM; in test [2] it was over 1000 nM; in test [3], 501 to 1000 nM; in test [4] it was 0.01 to 100 nM.
With `CCc1cc(-c2noc(CC#N)n2)ccc1N(C)c1cc2c(cn1)ncn2C` [Compound 148, 2-(3-(3-ethyl-4-(methyl(1-methyl-1H-imidazo[4,5-c]pyridin-6-yl)amino)phenyl)-1,2,4-oxadiazol-5-yl)acetonitrile], the IC50 is 0.01 to 100 nM in test [1], 501 to 1000 nM in test [2], 501 to 1000 nM in test [3] and 0.01 to 100 nM in test [4].
In the case of `CCc1cc(CNCC#N)ccc1N(C)c1cc2c(cn1)ncn2C` [Compound 149, 2-(3-ethyl-4-(methyl(1-methyl-1H-imidazo[4,5-c]pyridin-6-yl)amino)benzylamino) acetonitrile], the IC50 is 0.01 to 100 nM in test [1], 101 to 500 nM in test [2], over 1000 nM in test [3] and 0.01 to 100 nM in test [4].
Take `CCc1cc(-c2cscn2)ccc1N(C)c1cc2c(cn1)ncn2C` [Compound 150, N-(2-ethyl-4-(thiazol-4-yl)phenyl)-N,1-dimethyl-1H-imidazo[4,5-c]pyridin-6-amine]: the IC50 lay in the range of 0.01 to 100 nM in test [1], 101 to 500 nM in test [2], 1 to 500 nM in test [3] and 0.01 to 100 nM in test [4].
`CCc1cc(C2=CCOCC2)ccc1N(C)c1cc2c(cn1)ncn2C` [Compound 153, N-(4-(3,6-dihydro-2H-pyran-4-yl)-2-ethylphenyl)-N,1-dimethyl-1H-imidazo[4,5-c]pyridin-6-amine]: the IC50 was 0.01 to 100 nM in test [1], 101 to 500 nM in test [2], 1 to 500 nM in test [3] and 0.01 to 100 nM in test [4].
For the molecule `CCc1cc(C2=CCN(C(=O)OC(C)(C)C)CC2)ccc1N(C)c1cc2c(cn1)ncn2C` [Compound 154, tert-butyl 4-(3-ethyl-4-(methyl(1-methyl-1H-imidazo[4,5-c]pyridin-6-yl)amino)phenyl)-5,6-dihydropyridine-1(2H)-carboxylate], the IC50 in test [1] is 0.01 to 100 nM; in test [2] it was over 1000 nM; in test [3], over 1000 nM; in test [4] it was 101 to 500 nM.
`CCc1cc(-c2cnccc2Cl)ccc1N(C)c1cc2c(cn1)ncn2C` [Compound 155, N-(4-(4-chloropyridin-3-yl)-2-ethylphenyl)-N,1-dimethyl-1H-imidazo[4,5-c]pyridin-6-amine]: the IC50 lay within 0.01 to 100 nM in test [1], 101 to 500 nM in test [2], 501 to 1000 nM in test [3] and 0.01 to 100 nM in test [4].
Regarding `CCc1cc(-c2noc(CCC#N)n2)ccc1N(C)c1cc2c(cn1)ncn2C` [Compound 156, 3-(3-(3-Ethyl-4-(methyl(1-methyl-1H-imidazo[4,5-c]pyridin-6-yl)amino)phenyl)-1,2,4-oxadiazol-5-yl)propanenitrile], the IC50 is 0.01 to 100 nM in test [1], over 1000 nM in test [2], 501 to 1000 nM in test [3] and 0.01 to 100 nM in test [4].
